This is an account of results in patent US10689331B2, “IDO inhibitors” (Bristol-Myers Squibb Company, priority 2015, dated 2020).

In the test the target is T1, human IDO1 (Homo sapiens, UniProt P14902).
T1 construct: expressed in transfected cells
The experiment in a line: HEK Human IDO-1 inhibition assay (kynurenine readout, Ehrlich reagent, absorbance 490 nm). Type of test: cell-based. The settings on record: human IDO1/HEK293 cells, incubated 20 hours with compound; 500 nM reference standard = 100% inhibition. In short, it runs like this: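 HEK293 cells stably expressing human IDO1, treated with compound for 20 h at 37 °C in phenol red-free RPMI/10% FBS. Kynurenine detected after TCA (0.2% final, 50 °C, 30 min) by Ehrlich reagent absorbance at 490 nm; IC50 normalised to 500 nM reference standard (100%) and DMSO (0%).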

Where a name gives a salt, the structure may show the parent alone.

T1 sequence (P14902 whole entry): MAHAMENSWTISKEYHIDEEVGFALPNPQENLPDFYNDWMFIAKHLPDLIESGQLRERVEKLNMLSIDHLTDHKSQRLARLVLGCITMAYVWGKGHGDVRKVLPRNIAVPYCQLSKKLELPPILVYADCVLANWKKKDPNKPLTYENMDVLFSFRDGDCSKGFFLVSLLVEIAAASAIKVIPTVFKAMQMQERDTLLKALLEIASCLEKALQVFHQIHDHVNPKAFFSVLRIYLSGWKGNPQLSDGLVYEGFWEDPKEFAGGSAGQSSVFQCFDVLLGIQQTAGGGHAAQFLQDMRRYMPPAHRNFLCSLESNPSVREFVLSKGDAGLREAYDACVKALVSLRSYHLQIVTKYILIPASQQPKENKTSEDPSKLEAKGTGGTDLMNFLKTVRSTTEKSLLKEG

In the case of `CC(C)CN(c1ccc(OCC(=O)O)cc1NC(=O)Cc1ccc(Cl)cc1F)C1CCCCC1` [Example 110, 2-(3-(2-(4-chloro-2-fluorophenyl)acetamido)-4-(cyclohexyl(isobutyl)amino)phenoxy)acetic acid], the IC50 (usually the concentration that inhibits the measured activity by half) is less than 100 nM.

For `O=C(O)COc1ccc(N(CC2CC2)C2CCCCC2)c(NC(=O)Nc2ccc(Cl)cc2F)c1` [Example 118, 2-(3-(3-(4-chloro-2-fluorophenyl)ureido)-4-(cyclohexyl(cyclopropylmethyl)amino)phenoxy)acetic acid], the IC50 is less than 100 nM.

On to `CC(C)CN(c1ccc(OC(C)C(=O)O)cc1NC(=O)Nc1ccc(C#N)cc1)C1CCCCC1` (single isomer, unassigned) [Example 66-2, 2-(3-(3-(4-cyanophenyl)ureido)-4-(cyclohexyl(isobutyl)amino)phenoxy)propanoic acid], for which the IC50 was less than 5 nM.

Turning to `Cc1ccc(NC(=O)Nc2cc(OC3(C(=O)O)CC3)ccc2N(CC(C)C)C2CCCCC2)cc1` [Example 94, 1-(4-(cyclohexyl(isobutyl)amino)-3-(3-(p-tolyl)ureido)phenoxy)cyclopropanecarboxylic acid], the IC50 is less than 5 nM.

In the case of `CC(C)CN(c1ccc(OCC(=O)Nc2nccs2)cc1NC(=O)Nc1ccc(Cl)cc1F)C1CCCCC1` [Example 155, 2-(3-(3-(4-chloro-2-fluorophenyl)ureido)-4-(cyclohexyl(isobutyl)amino)phenoxy)-N-(thiazol-2-yl)acetamide], the IC50 is not below 100 nM.

On to `CCOC(=O)C(C)Oc1ccc(N(CC(C)C)C2CCCCC2)c(NC(=O)Nc2ccc(Cl)cc2F)c1` (racemic) [racemic 67], for which the IC50 was less than 5 nM.

For `Cc1ccc(NC(=O)Nc2cc(OCc3nnn[nH]3)c(F)cc2N(CC(C)C)CC(C)C)cc1` [Example 95, 1-(5-((1H-tetrazol-5-yl)methoxy)-2-(diisobutylamino)-4-fluorophenyl)-3-(p-tolyl)urea], the IC50 was less than 100 nM.

Consider `CC(C)CN(c1ccc(OCC(=O)O)cc1NC(=O)Nc1nnc(C(F)(F)F)s1)C1CCCCC1` [Example 8, 2-(4-(cyclohexyl(isobutyl)amino)-3-(3-(5-(trifluoromethyl)-1,3,4-thiadiazol-2-yl)ureido)phenoxy) acetic acid], for which the IC50 is not below 100 nM.

Take `CC(C)CN(c1ccc(OCC(=O)O)cc1NC(=O)N1CCc2ccccc21)C1CCCCC1` [Example 16, 2-(4-(cyclohexyl(isobutyl)amino)-3-(indoline-1-carboxamido)phenoxy)acetic acid]: the IC50 was not below 100 nM.

In the case of `CCOC(=O)C(C)Oc1ccc(N(CC(C)C)C2CCCCC2)c(NC(=O)Nc2ccc(Cl)cc2F)c1` (single isomer, unassigned) [Example 67-2, ethyl 2-(3-(3-(4-chloro-2-fluorophenyl)ureido)-4-(cyclohexyl(isobutyl)amino)phenoxy)propanoate], the IC50 is less than 5 nM.

Turning to `CC(C)CN(c1ccc(OC(C(=O)O)C(C)C)cc1NC(=O)Nc1ccc(Cl)cc1F)C1CCCCC1` (racemic) [Example 83], the IC50 was less than 5 nM.

Take `CC(C)CN(c1ccc(OCC(=O)O)cc1NC(=O)Nc1ccon1)C1CCCCC1` [Example 10, 2-(4-(cyclohexyl(isobutyl)amino)-3-(3-(isoxazol-3-yl)ureido)phenoxy)acetic acid]: the IC50 was not below 100 nM.

Take `CC(C)CN(c1ccc(OCC(=O)O)c(F)c1NC(=O)Nc1ccc(Cl)cc1F)C1CCCCC1` [Example 107, 2-(3-(3-(4-chloro-2-fluorophenyl)ureido)-4-(cyclohexyl(isobutyl)amino)-2-fluorophenoxy)acetic acid]: the IC50 is not below 100 nM.

On to `CC(C)CN(c1ccc(OCC(=O)O)cc1NC(=O)Nc1ccccc1F)C1CCCCC1` [Example 18, 2-(4-(cyclohexyl(isobutyl)amino)-3-(3-(2-fluorophenyl)ureido)phenoxy)acetic acid], for which the IC50 was less than 5 nM.

Turning to `CC(C)CN(c1ccc(OCC(=O)O)cc1NC(=O)Nc1cc(F)cc(F)c1)C1CCCCC1` [Example 32, 2-(4-(cyclohexyl(isobutyl)amino)-3-(3-(3,5-difluorophenyl)ureido)phenoxy)acetic acid], the IC50 is not below 100 nM.

On to `CCOC(=O)C(C)Oc1ccc(N(CC(C)C)C2CCCCC2)c(NC(=O)Nc2ccc(Cl)cc2F)c1` (single isomer, unassigned) [Example 67-1, ethyl 2-(3-(3-(4-chloro-2-fluorophenyl)ureido)-4-(cyclohexyl(isobutyl)amino)phenoxy)propanoate], for which the IC50 is less than 100 nM.

For the molecule `CC(C)CN(c1ccc(OCC(=O)NCC(F)(F)F)cc1NC(=O)Nc1ccc(Cl)cc1F)C1CCCCC1` [Example 135, 2-(3-(3-(4-chloro-2-fluorophenyl)ureido)-4-(cyclohexyl(isobutyl)amino)phenoxy)-N-(2,2,2-trifluoroethyl)acetamide], the IC50 was not below 100 nM.

Consider `Cc1cc(NC(=O)Nc2cc(OCC(=O)O)ccc2N(CC(C)C)C2CCCCC2)no1` [Example 7, 2-(4-(cyclohexyl(isobutyl)amino)-3-(3-(5-methylisoxazol-3-yl)ureido)phenoxy)acetic acid], for which the IC50 was not below 100 nM.

Consider `CC(C)CN(c1c(C#N)cc(OCC(=O)O)cc1NC(=O)Nc1ccc(Cl)cc1F)C1CCCCC1` [Example 108, 2-(3-(3-(4-chloro-2-fluorophenyl)ureido)-5-cyano-4-(cyclohexyl(isobutyl)amino)phenoxy)acetic acid], for which the IC50 is less than 100 nM.

As for `Cc1ccc(CC(=O)Nc2cc(OC(C)C(=O)O)ccc2N(CC(C)C)C2CCCCC2)cc1` (racemic) [Example 75, 2-(4-(cyclohexyl(isobutyl)amino)-3-(2-(p-tolyl)acetamido)phenoxy)propanoic acid], the IC50 is less than 100 nM.

Consider `CC(C)CN(c1ccc(OC(C)C(=O)O)cc1NC(=O)Cc1ccc(F)cc1F)C1CCCCC1` (racemic) [Example 71, 2-(4-(cyclohexyl(isobutyl)amino)-3-(2-(2,4-difluorophenyl)acet-amido)phenoxy)propanoic acid], for which the 50% inhibitory concentration (IC50) was less than 100 nM.

Consider `CC(C)CN(c1cc(F)c(OC(C)C(=O)O)cc1NC(=O)Nc1ccc(Cl)cc1F)C1CCCCC1` (single isomer, unassigned) [Example 136-1, 2-(5-(3-(4-chloro-2-fluorophenyl)ureido)-4-(cyclohexyl(isobutyl)amino)-2-fluorophenoxy)propanoic acid.TFA], for which the IC50 is less than 5 nM.

Consider `CC(C)CN(c1ccc(OCC(=O)O)cc1NC(=O)Nc1ccc(Br)cc1F)C1CCC(F)(F)CC1` [Example 99, 2-(3-(3-(4-Bromo-2-fluorophenyl)ureido)-4-((4,4-difluorocyclohexyl)(isobutyl)amino)-phenoxy)acetic acid], for which the 50% inhibitory concentration (IC50) was less than 5 nM.

As to `CC(C)CN(c1ccc(OCC(=O)O)cc1NC(=O)Nc1ccc(F)c(F)c1)C1CCCCC1` [Example 31, 2-(4-(cyclohexyl(isobutyl)amino)-3-(3-(3,4-difluorophenyl)ureido)phenoxy)acetic acid], the IC50 is less than 100 nM.

Turning to `CC(C)CN(c1ccc(OCC(=O)O)cc1NC(=O)Cc1ccc(F)cc1)C1CCCCC1` [Example 57, 2-(4-(cyclohexyl(isobutyl)amino)-3-(2-(4-fluorophenyl)acetamido)phenoxy)acetic acid], the IC50 is not below 100 nM.

As for `CC(C)CN(c1cc(F)c(OCC(=O)O)cc1NC(=O)Nc1ccccc1Cl)C1CCCCC1` [Example 123, 2-(5-(3-(2-chlorophenyl)ureido)-4-(cyclohexyl(isobutyl)amino)-2-fluorophenoxy)acetic acid], the IC50 is not below 100 nM.

Take `Cc1ccc(NC(=O)Nc2cc(OC(C)(C)C(=O)O)ccc2N(CC(C)C)C2CCCCC2)cc1` [Example 92, 2-(4-(cyclohexyl(isobutyl)amino)-3-(3-(p-tolyl)ureido)phenoxy)-2-methylpropanoic acid]: the IC50 was less than 5 nM.

As for `CCC(Oc1ccc(N(CC(C)C)C2CCOCC2)c(NC(=O)Nc2ccc(Cl)cc2F)c1)C(=O)O` (single isomer, unassigned) [Example 143-2, 2-(3-(3-(4-chloro-2-fluorophenyl)ureido)-4-(isobutyl(tetrahydro-2H-pyran-4-yl)amino)phenoxy)butanoic acid], the IC50 is less than 5 nM.

With `CCCC(Oc1ccc(N(CC(C)C)C2CCCCC2)c(NC(=O)Nc2ccc(Cl)cc2F)c1)C(=O)O` (single isomer, unassigned) [Example 85-1, 2-(3-(3-(4-chloro-2-fluorophenyl)ureido)-4-(cyclohexyl(isobutyl)amino)phenoxy)pentanoic acid], the IC50 is less than 5 nM.

Take `C=C(C)CN(c1ccc(OC(C)C(=O)O)cc1NC(=O)Nc1ccc(Cl)cc1F)C1CCOCC1` (single isomer, unassigned) [Example 139-2, 2-(3-(3-(4-chloro-2-fluorophenyl)ureido)-4-((2-methylallyl)(tetrahydro-2H-pyran-4-yl)amino)phenoxy)propanoic acid]: the IC50 was less than 5 nM.

For `CC(C)CN(c1ccc(OCC(=O)O)cc1NC(=O)Nc1ccc(Cl)cc1F)C1COC1` [Example 147, 2-(3-(3-(4-chloro-2-fluorophenyl)ureido)-4-(isobutyl(oxetan-3-yl)amino)phenoxy)acetic acid], the IC50 was not below 100 nM.

In the case of `CC(C)CN(c1cc(F)c(OCC(=O)O)cc1NC(=O)Nc1ccc(F)cc1F)C1CCCCC1` [Example 124, 2-(4-(cyclohexyl(isobutyl)amino)-5-(3-(2,4-difluorophenyl)ureido)-2-fluorophenoxy)acetic acid], the IC50 was less than 100 nM.

In the case of `CCCN(Cc1ccccc1)c1ccc(OCC(=O)O)cc1NC(=O)Nc1ccc(C)cc1` [Example 159, 2-(4-(benzyl(propyl)amino)-3-(3-(p-tolyl)ureido)phenoxy)acetic acid], the IC50 was not below 100 nM.

`CC(C)CN(Cc1ccc(Cl)cc1)c1ccc(OCC(=O)O)cc1NC(=O)Nc1ccc(Cl)cc1F` [Example 163, 2-(3-(3-(4-chloro-2-fluorophenyl)ureido)-4-((4-chlorobenzyl)(isobutyl)amino)phenoxy)acetic acid]: the IC50 was less than 100 nM.
